Experimental data reported in US11214594B2, “Antimicrobial peptide having synergistic antibacterial effect with antibiotics on multidrug resistant bacteria, and use thereof” (priority 2016, dated 2022).
≈ marks a conversion by molar mass, not a printed value. Where two headings read alike, the source gives them in different places. Where a SMILES comes first, the peptide text is derived from it.

What was measured:
S. typhimurium = test: microbe, parasite or virus in culture; type: cell-based, Salmonella typhimurium; settings: Salmonella enterica, read-out: Minimal inhibitory concentration MIC
Method: (§1) For the antibacterial activity, a minimal inhibitory concentration (MIC) of a peptide in which fungus bodies were not split in an MH medium with sufficient nutrients was measured.
(§2) Specifically, the strains described in the following [Table 2] were purchased and diluted with an MH medium such that the number of bacteria was 2×10^6 colony-forming units (CFUs), 100 μl of each of the diluted strains was aliquoted into a 96-well microtiter plate, and then 100 μl of a peptide solution diluted with the MH medium (solution diluted stepwise at 2: 1) was added to each well.

MDRAB 12035 = test: microbe, parasite or virus in culture; type: cell-based, Acinetobacter baumannii; settings: for Antibiotic MIC, compound alone: MDRAB 12035, no peptide
Method: as §1, §2

A. baumannii [1] = test: microbe, parasite or virus in culture; type: cell-based, Acinetobacter baumannii; settings: for Antibiotic MIC, compound alone: no peptide; for MIC: Acinetobacter baumannii, read-out: Minimal inhibitory concentration MIC
Method: as §1, §2

A. baumannii [2] = test: MIC of antibiotic during combined treatment with antimicrobial peptide; type: cell-based, Acinetobacter baumannii; settings: A. baumannii
Method: (§3) Thereafter, the MIC value of each mixed solution was determined by diluting the antibiotic solution with the MH medium, adding 50 μl of the diluted solution to each well, and performing an experiment even under a reversed condition.

E. coli [3] = test: as above; type: cell-based, Escherichia coli; settings: E. coli
Method: as §3

S. epidermidis = test: microbe, parasite or virus in culture; type: cell-based, Staphylococcus epidermidis; settings: Staphylococcus epidermidis, read-out: Minimal inhibitory concentration MIC
Method: as §1, §2

B. subtilis = test: microbe, parasite or virus in culture; type: cell-based, Bacillus subtilis; settings: Bacillus subtilis, read-out: Minimal inhibitory concentration MIC
Method: as §1, §2

E. coli [4] = test: microbe, parasite or virus in culture; type: cell-based, Escherichia coli
Method: as §1, §2

MDREC 1229 = test: microbe, parasite or virus in culture; type: cell-based, Escherichia coli; settings: for MIC: Escherichia coli, read-out: Minimal inhibitory concentration MIC; for Antibiotic MIC, compound alone: no peptide
Method: as §1, §2

P. aeruginosa = test: microbe, parasite or virus in culture; type: cell-based, Pseudomonas aeruginosa; settings: Pseudomonas aeruginosa, read-out: Minimal inhibitory concentration MIC
Method: as §1, §2

A. baumannii [5] = test: MIC of antimicrobial peptide during combined treatment with antibiotic; type: cell-based, Acinetobacter baumannii
Method: Specifically, the strains described in [Table 2] were prepared and diluted with an MH medium such that the number of bacteria was 2×10^6 colony-forming units (CFUs) per 1 ml, 100 μl of the diluted strains was each aliquoted into a 96-well microtiter plate, and then 50 μl of a peptide solution diluted with the MH medium from the MIC value (solution diluted stepwise at 2: 1) was added to each well. Thereafter, the MIC value of each mixed solution was determined by diluting the antibiotic solution with the MH medium, adding 50 μl of the diluted solution to each well, and performing an experiment even under a reversed condition.

S. aureus = test: microbe, parasite or virus in culture; type: cell-based, Staphylococcus aureus; settings: Staphylococcus aureus, read-out: Minimal inhibitory concentration MIC
Method: as §1, §2

[6] = with Papiliocin 1 μg/ml (Conc./MIC 1/8)
[7] = with Papiliocin 2 μg/ml (Conc./MIC 1/4)
[8] = with Papiliocin 4 μg/ml (Conc./MIC 1/2)
[9] = with Papiliocin 8 μg/ml (Conc./MIC 1)
[10] = with PapMA-1 at 16 μg/ml (1/4 of peptide MIC)
[11] = with PapMA-2 at 16 μg/ml (1/4 of peptide MIC)
[12] = E. coli, compound alone (no peptide)

SMILES	MIC (S. typhimurium; S. typhimurium, agent alone) [µg/mL]	Antibiotic MIC, compound alone (MDRAB 12035) [µg/mL]	Antibiotic MIC, compound alone (A. baumannii [1]; A. baumannii) [µg/mL]	MIC of antibiotic administered in combination with peptide (A. baumannii [2]; with PapMA-1 at 8 μg/ml) [µg/mL]	MIC of antibiotic in combination as fraction of the MIC of the antibiotic alone (A. baumannii [2]; with PapMA-1 at 8 μg/ml)	MIC Concentration of antibiotic (A. baumannii [2]; [6]) [µg/mL]	MIC Concentration of antibiotic (A. baumannii [2]; [7]) [µg/mL]	MIC Concentration of antibiotic (A. baumannii [2]; [8]) [µg/mL]	MIC Concentration of antibiotic (A. baumannii [2]; [9]) [µg/mL]	MIC of antibiotic in mixture as fraction of the MIC of the antibiotic alone (E. coli [3]; with PapMA-1 at 16 μg/ml)	MIC value of antibiotic mixed with peptide (E. coli [3]; [10]) [µg/mL]	MIC value of antibiotic mixed with peptide (E. coli [3]; [11]) [µg/mL]	MIC of antibiotic in mixture as fraction of the MIC of the antibiotic alone (E. coli [3]; with PapMA-7 at 16 μg/ml)	MIC Concentration of antibiotic (E. coli [3]; [6]) [µg/mL]	MIC Concentration of antibiotic (E. coli [3]; [7]) [µg/mL]	MIC Concentration of antibiotic (E. coli [3]; [8]) [µg/mL]	MIC Concentration of antibiotic (E. coli [3]; [9]) [µg/mL]	MIC (S. epidermidis; S. epidermidis, agent alone) [µg/mL]	MIC (B. subtilis; B. subtilis, agent alone) [µg/mL]	Antibiotic MIC, compound alone (MDREC 1229; MDREC 1229) [µg/mL]	also measured
CC[C@H]1OC(=O)[C@H](C)[C@@H](O[C@H]2C[C@@](C)(OC)[C@@H](O)[C@H](C)O2)[C@H](C)[C@@H](O[C@@H]2O[C@H](C)C[C@H](N(C)C)[C@H]2O)[C@](C)(O)C[C@@H](C)C(=O)[C@H](C)[C@@H](O)[C@]1(C)O [Erythromycin, erythromycin, reference compound]	64 (≈ 87.2 µM)	32	32	0.5	1/64	32	16	16	0	1/64	2	0.5	1/512	64	64	64	0	1 (≈ 1.36 µM)	0.25 (≈ 0.341 µM)		MIC (A. baumannii [1]; A. baumannii, agent alone): 32 µg/mL (≈ 43.6 µM)
CC(=O)NC[C@H]1CN(c2ccc(N3CCOCC3)c(F)c2)C(=O)O1 [Linezolid, linezolid, reference compound]	256 (≈ 759 µM)	512	256	8	1/32	128	64	64	0	1/16	16	8	1/256	128	128	128	0	1 (≈ 2.96 µM)	1 (≈ 2.96 µM)	512	Antibiotic MIC, Linezolid (E. coli [4]; [12]): 256 µg/mL; MIC (MDREC 1229; MDREC 1229, agent alone): 512 µg/mL (≈ 1520 µM); MIC (P. aeruginosa; P. aeruginosa, agent alone): > 1020 µg/mL; MIC of antibiotic administered in combination with peptide (A. baumannii [2]; with PapMA-7 at 8 μg/ml): 1 µg/mL; MIC of antibiotic in combination as fraction of the MIC of the antibiotic alone (A. baumannii [2]; with PapMA-7 at 8 μg/ml): 1/256; MIC of antibiotic in mixture as fraction of the MIC of the antibiotic alone (E. coli [3]; with PapMA-2 at 16 μg/ml): 1/32; MIC value of antibiotic mixed with peptide (E. coli [3]; with PapMA-7 at 16 μg/ml (1/2 of peptide MIC)): 1 µg/mL
CC[C@H](C)[C@H](NC(=O)[C@H](CCCCN)NC(=O)[C@H](Cc1c[nH]c2ccccc12)NC(=O)[C@@H](N)CCCNC(=N)N)C(=O)N[C@@H](Cc1ccccc1)C(=O)N[C@@H](CCCCN)C(=O)N[C@@H](CCCCN)C(=O)N[C@H](C(=O)N1CCC[C@H]1C(=O)N[C@@H](CCCCN)C(=O)N[C@@H](CC(C)C)C(=O)N[C@@H](CC(C)C)C(=O)N[C@@H](Cc1c[nH]cn1)C(=O)N[C@@H](CCC(=O)O)C(=O)N[C@@H](Cc1ccccc1)C(=O)N[C@@H](CCCCN)C(=O)N[C@@H](CCCCN)C(=O)N[C@@H](Cc1ccccc1)C(N)=O)[C@@H](C)CC [Pap-MA-12] (H-RWKIFKKIPKLLHEFKKF-NH2; N-terminus assumed)																					Peptide MIC, peptide alone (A. baumannii [1]): 8 µg/mL; Peptide MIC during treatment with antibiotic (A. baumannii [5]; erythromycin 4 μg/ml (Conc./MIC 1/8)): 4 µg/mL; Peptide MIC during treatment with antibiotic (A. baumannii [5]; erythromycin 8 μg/ml (Conc./MIC 1/4)): 2 µg/mL; Peptide MIC during treatment with antibiotic (A. baumannii [5]; erythromycin 16 μg/ml (Conc./MIC 1/2)): 1 µg/mL; Peptide MIC during treatment with antibiotic (A. baumannii [5]; erythromycin 32 μg/ml (Conc./MIC 1)): 0 µg/mL; Peptide MIC during treatment with antibiotic (A. baumannii [5]; linezolid 32 μg/ml (Conc./MIC 1/8)): 2 µg/mL; Peptide MIC during treatment with antibiotic (A. baumannii [5]; linezolid 64 μg/ml (Conc./MIC 1/4)): 2 µg/mL; Peptide MIC during treatment with antibiotic (A. baumannii [5]; linezolid […] (Conc./MIC 1)): 0 µg/mL; Peptide MIC during treatment with antibiotic (A. baumannii [5]; linezolid […] (Conc./MIC 1/2)): 1 µg/mL; Peptide MIC during treatment with antibiotic (A. baumannii [5]; vancomycin 512 μg/ml (Conc./MIC 1/2)): 0.25 µg/mL; Peptide MIC during treatment with antibiotic (A. baumannii [5]; vancomycin 1024 μg/ml (Conc./MIC 1)): 0 µg/mL; Peptide MIC during treatment with antibiotic (A. baumannii [5]; vancomycin […] (Conc./MIC 1/4)): 0.25 µg/mL; Peptide MIC during treatment with antibiotic (A. baumannii [5]; vancomycin […] (Conc./MIC 1/8)): 2 µg/mL
CN[C@H](CC(C)C)C(=O)N[C@H]1C(=O)N[C@@H](CC(N)=O)C(=O)N[C@H]2C(=O)N[C@H]3C(=O)N[C@H](C(=O)N[C@H](C(=O)O)c4cc(O)cc(O)c4-c4cc3ccc4O)[C@H](O)c3ccc(c(Cl)c3)Oc3cc2cc(c3O[C@@H]2O[C@H](CO)[C@@H](O)[C@H](O)[C@H]2O[C@H]2C[C@](C)(N)[C@H](O)[C@H](C)O2)Oc2ccc(cc2Cl)[C@H]1O [Vancomycin, vancomycin, reference compound]		>1024	1024			512	256	256	0					512	256	256	0			>1024	Antibiotic MIC, Vancomycin (E. coli [4]; [12]): 1024 µg/mL; MIC (E. coli [4]; Escherichia coli, 16 h, read-out: Minimal inhibitory concentration MIC): 1020 µg/mL (≈ 707 µM); MIC (MDREC 1229): > 1020 µg/mL; MIC (S. typhimurium; TYPHIMURIUM): 512 µg/mL (≈ 353 µM); MIC (S. aureus): 1 µg/mL (≈ 0.69 µM); MIC (MDRAB 12035; Acinetobacter baumannii, read-out: Minimal inhibitory concentration MIC): > 1020 µg/mL; MIC (A. baumannii [1]): 1020 µg/mL (≈ 707 µM); MIC (P. aeruginosa): > 1020 µg/mL; MIC of antibiotic administered in combination with peptide (A. baumannii [2]; with PapMA-7 at 8 μg/ml): 2 µg/mL; MIC of antibiotic in combination as fraction of the MIC of the antibiotic alone (A. baumannii [2]; with PapMA-7 at 8 μg/ml): 1/512; MIC (S. epidermidis): 1 µg/mL (≈ 0.69 µM); MIC (B. subtilis): 1 µg/mL (≈ 0.69 µM)
